The target in this assay is T1, Bcl-2-related protein A1 (Mus musculus, UniProt Q07440).
T1 sequence (Q07440 whole entry): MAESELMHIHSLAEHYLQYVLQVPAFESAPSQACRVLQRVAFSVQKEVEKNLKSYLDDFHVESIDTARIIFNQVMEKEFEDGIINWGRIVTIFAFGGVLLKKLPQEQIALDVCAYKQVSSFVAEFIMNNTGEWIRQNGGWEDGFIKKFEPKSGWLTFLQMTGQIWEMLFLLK
The assay is described as follows: displacement of Bid BH3 peptide from Bfl-1 – biochemical, fluorescence polarization, FITC-Bid, mouse, primary screen (AID 432). The note with it: pH 7; 23 °C.

For orientation: IC50 means the concentration at which inhibition is half-maximal. A high value points to lower potency. `CCCN1CCC2=C(C#N)C(=N)C(C#N)(C#N)C(c3cccc(OC)c3OC)C2C1` (stereo not drawn) [6-amino-8-(2,3-dimethoxyphenyl)-2-propyl-1,3,8,8a-tetrahydroisoquinoline-5,7,7-tricarbonitrile] returned an IC50 of more than 100 µM. Next, `c1ccc(-c2ccc(C3=Nc4ncnn4C(c4ccco4)C3)cc2)cc1` (stereo not drawn): more than 100 µM; `O=C1C(=O)N(c2ncccn2)C(c2cccc(Cl)c2)C1C(=O)c1ccco1` (stereo not drawn) [2-(3-chlorophenyl)-3-(furan-2-carbonyl)-4-hydroxy-1-pyrimidin-2-yl-2H-pyrrol-5-one]: more than 100 µM. For `CN1CCC2=C(C#N)C(=N)C(C#N)(C#N)[C@H](c3cccc(Cl)c3)C2C1` (stereo partly drawn) [(8S)-6-amino-8-(3-chlorophenyl)-2-methyl-1,3,8,8a-tetrahydroisoquinoline-5,7,7-tricarbonitrile], the IC50 is more than 100 µM. In turn, `CN1CCC2=C(C#N)C(=N)C(C#N)(C#N)C(c3cccc(Cl)c3Cl)C2C1` (stereo not drawn) [6-azanyl-8-[2,3-bis(chloranyl)phenyl]-2-methyl-1,3,8,8a-tetrahydroisoquinoline-5,7,7-tricarbonitrile] yielded an IC50 of more than 100 µM. In the case of `OCCCc1nc2n(n1)C(c1cccs1)CC(c1ccccc1)=N2` (stereo not drawn) [3-(5-phenyl-7-thiophen-2-yl-1,7-dihydro-[1,2,4]triazolo[1,5-a]pyrimidin-2-yl)-1-propanol], the IC50 was more than 100 µM. `Cc1ccc(C2C3CN(C(C)C)CCC3=C(C#N)C(=N)C2(C#N)C#N)cc1` (stereo not drawn) [SMR000034220] came in with an IC50 of more than 100 µM. Next, `COc1ccc(N2C(=O)C(=Nc3c(C)n(C)n(-c4ccccc4)c3=O)C(Cl)C2=O)cc1` (stereo not drawn) [3-chloranyl-4-[(1,5-dimethyl-3-oxidanylidene-2-phenyl-pyrazol-4-yl)amino]-1-(4-methoxyphenyl)pyrrole-2,5-dione]: more than 100 µM.
